Legend:
[1] = biological target: T1, Transient receptor potential cation channel subfamily V member 1 (Homo sapiens, UniProt Q8NER1); assay: Antagonist activity at human TRPV1 heterologously expressed in CHO cells assessed as inhibition of capsaicin-induced activation by FLIPR assay; format: cell-based
[2] = biological target: T1, Transient receptor potential cation channel subfamily V member 1; assay: Antagonist activity at human TRPV1 heterologously expressed in CHO cells assessed as inhibition of NADA-induced activation by FLIPR assay; format: cell-based
[3] = biological target: T1, Transient receptor potential cation channel subfamily V member 1; assay: Antagonist activity at human TRPV1 heterologously expressed in CHO cells assessed as inhibition of low pH-induced activation; format: cell-based
[4] = biological target: T1, Transient receptor potential cation channel subfamily V member 1; assay: Antagonist activity at human TRPV1 heterologously expressed in CHO cells assessed as inhibition of low 45 degC heat -induced activation; format: cell-based
[5] = test system: Mus musculus; assay: Inhibition of capsaicin-induced hypothermia in mouse at 3 mg/kg, po administered 15 mins prior to capsaicin challenge measured 30 mins post capsaicin challenge; format: functional
[6] = test system: Mus musculus; assay: Analgesic activity in Bennett mouse model of neuropathic pain assessed as reduction of CCI-induced cold allodynia at 0.0001 to 100 mg/kg, po; format: functional, organism-based
[7] = test system: Mus musculus; assay: Induction of hyperthermia in mouse at 0.3 and 3 mg/kg, po; conditions: in vivo
[8] = test system: Mus musculus; assay: Inhibition of capsaicin-induced hypothermia in mouse at 0.3 mg/kg, po administered 15 mins prior to capsaicin challenge measured 30 mins post capsaicin challenge; format: functional
[9] = test system: Mus musculus; assay: Analgesic activity in Bennett mouse model of neuropathic pain assessed as reduction of CCI-induced cold allodynia at 10 mg/kg, po; format: functional
[10] = test system: Mus musculus; assay: Inhibition of capsaicin-induced hypothermia in mouse at 0.3 and 3 mg/kg, po administered 15 mins prior to capsaicin challenge measured 30 mins post capsaicin challenge; format: functional, organism-based

T1 sequence (Q8NER1 whole entry): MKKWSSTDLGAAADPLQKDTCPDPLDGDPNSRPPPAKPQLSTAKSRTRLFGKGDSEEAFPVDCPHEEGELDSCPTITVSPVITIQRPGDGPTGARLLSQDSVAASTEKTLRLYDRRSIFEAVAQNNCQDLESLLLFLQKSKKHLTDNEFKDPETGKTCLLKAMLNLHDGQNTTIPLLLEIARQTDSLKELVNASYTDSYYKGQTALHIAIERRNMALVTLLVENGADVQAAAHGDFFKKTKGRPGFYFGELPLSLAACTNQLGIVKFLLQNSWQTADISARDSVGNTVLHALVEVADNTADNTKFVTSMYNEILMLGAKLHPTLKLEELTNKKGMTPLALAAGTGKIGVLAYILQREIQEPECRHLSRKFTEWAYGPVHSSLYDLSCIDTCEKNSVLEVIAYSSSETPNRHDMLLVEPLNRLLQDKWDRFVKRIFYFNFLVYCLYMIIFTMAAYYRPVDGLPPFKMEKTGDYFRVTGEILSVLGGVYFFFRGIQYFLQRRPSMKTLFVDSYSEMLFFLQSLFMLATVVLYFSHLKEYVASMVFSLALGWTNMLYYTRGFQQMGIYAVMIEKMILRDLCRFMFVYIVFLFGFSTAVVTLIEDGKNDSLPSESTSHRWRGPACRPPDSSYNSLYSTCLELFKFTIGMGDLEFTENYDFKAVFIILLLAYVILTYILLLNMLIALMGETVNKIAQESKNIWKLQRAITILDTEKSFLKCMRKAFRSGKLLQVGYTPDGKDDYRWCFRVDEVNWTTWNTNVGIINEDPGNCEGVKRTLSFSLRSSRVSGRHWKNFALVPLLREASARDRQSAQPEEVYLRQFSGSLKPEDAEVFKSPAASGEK

Ki ([1]; read-out: Ki) [pM] | SMILES | also measured
600 | CC(C(=O)NCc1ccc(C(F)(F)F)nc1-c1ccc(F)c(Cl)c1)c1ccc(NS(C)(=O)=O)c(F)c1 (stereo not given) | –
600 | CC(C(=O)NCc1ccc(C(F)(F)F)cc1C1CCCCC1)c1ccc(NS(C)(=O)=O)c(F)c1 (stereo not given) | –
2000 | CCCOc1cc(C(F)(F)F)ccc1CNC(=O)C(C)c1ccc(NS(C)(=O)=O)c(F)c1 (stereo not given) | –
500 | CC(C(=O)NCc1ccc(C(F)(F)F)cc1OCc1ccc(F)cc1)c1ccc(NS(C)(=O)=O)c(F)c1 (stereo not given) | –
1900 | CCCCSc1cc(C(F)(F)F)ccc1CNC(=O)C(C)c1ccc(NS(C)(=O)=O)c(F)c1 (stereo not given) | –
– | CC(C(=O)NCc1ccc(C(F)(F)F)cc1SCCCO)c1ccc(NS(C)(=O)=O)c(F)c1 (stereo not given) | Ki ([1]; cho): Not Active
600 | CC(C(=O)NCc1ccc(C(F)(F)F)cc1-c1ccc(F)c(Cl)c1)c1ccc(NS(C)(=O)=O)c(F)c1 (stereo not given) | –
1800 | CCCCCCSc1cc(C(F)(F)F)ccc1CNC(=O)C(C)c1ccc(NS(C)(=O)=O)c(F)c1 (stereo not given) | –
900 | CC1CCN(c2cc(C(F)(F)F)ccc2CNC(=O)C(C)c2ccc(NS(C)(=O)=O)c(F)c2)CC1 (stereo not given) | –
3900 | CC(C(=O)NCc1ccc(C(F)(F)F)cc1N1CCN(c2cccc(C(F)(F)F)c2)CC1)c1ccc(NS(C)(=O)=O)c(F)c1 (stereo not given) | –
1100 | CC(C(=O)NCc1ccc(C(F)(F)F)cc1SCc1ccc(Cl)cc1)c1ccc(NS(C)(=O)=O)c(F)c1 (stereo not given) | –
2300 | COc1ccc(CSc2cc(C(F)(F)F)ccc2CNC(=O)C(C)c2ccc(NS(C)(=O)=O)c(F)c2)cc1 (stereo not given) | –
400 | CC(C(=O)NCc1ccc(C(F)(F)F)cc1N1CCC(Cc2ccc(F)cc2)CC1)c1ccc(NS(C)(=O)=O)c(F)c1 (stereo not given) | –
3200 | CC(C(=O)NCc1ccc(C(F)(F)F)cc1SCc1ccco1)c1ccc(NS(C)(=O)=O)c(F)c1 (stereo not given) | –
– | CC(C(=O)NCc1ccc(C(F)(F)F)cc1[N+](=O)[O-])c1ccc(NS(C)(=O)=O)c(F)c1 (stereo not given) | Ki ([1]; cho): Not Active
500 | CC(C(=O)NCc1ccc(C(F)(F)F)cc1SC1CCCCC1)c1ccc(NS(C)(=O)=O)c(F)c1 (stereo not given) | –
800 | CC(C)COc1cc(C(F)(F)F)ccc1CNC(=O)C(C)c1ccc(NS(C)(=O)=O)c(F)c1 (stereo not given) | –
500 | CC(C)CCOc1cc(C(F)(F)F)ccc1CNC(=O)C(C)c1ccc(NS(C)(=O)=O)c(F)c1 (stereo not given) | –
2300 | CCCCCSc1cc(C(F)(F)F)ccc1CNC(=O)C(C)c1ccc(NS(C)(=O)=O)c(F)c1 (stereo not given) | –
400 | CC(C(=O)NCc1ccc(C(F)(F)F)cc1N1CCC(Cc2cccc(F)c2)CC1)c1ccc(NS(C)(=O)=O)c(F)c1 (stereo not given) | –
13900 | C[C@@H](C(=O)NCc1ccc(C(F)(F)F)cc1SC1CCCCC1)c1ccc(NS(C)(=O)=O)c(F)c1 | –
400 | CCCCCCc1cc(C(F)(F)F)ccc1CNC(=O)C(C)c1ccc(NS(C)(=O)=O)c(F)c1 (stereo not given) | –
900 | CC(C(=O)NCc1ccc(C(F)(F)F)cc1SCc1ccccc1Cl)c1ccc(NS(C)(=O)=O)c(F)c1 (stereo not given) | –
300 | C[C@H](C(=O)NCc1ccc(C(F)(F)F)cc1SC1CCCCC1)c1ccc(NS(C)(=O)=O)c(F)c1 | Ki [2]: 30 pM; IC50 [3]: 20400 pM; IC50 [4]: 7300 pM; inhibition in vivo at 3 mg/kg [5]: 57%; Activity [6]: Dose-dependent effect; Activity [7]: Non-toxic
400 | CC(C(=O)NCc1ccc(C(F)(F)F)nc1N1CCC(C(F)(F)F)CC1)c1ccc(NS(C)(=O)=O)c(F)c1 (stereo not given) | –
1000 | CC(C(=O)NCc1ccc(C(F)(F)F)cc1-c1cccc(Cl)c1)c1ccc(NS(C)(=O)=O)c(F)c1 (stereo not given) | –
500 | CC(C(=O)NCc1ccc(C(F)(F)F)cc1SCc1ccccc1)c1ccc(NS(C)(=O)=O)c(F)c1 (stereo not given) | –
1200 | CCCCN(C)c1cc(C(F)(F)F)ccc1CNC(=O)C(C)c1ccc(NS(C)(=O)=O)c(F)c1 (stereo not given) | –
1400 | CC(C)CCSc1cc(C(F)(F)F)ccc1CNC(=O)C(C)c1ccc(NS(C)(=O)=O)c(F)c1 (stereo not given) | –
300 | CC(C(=O)NCc1ccc(C(F)(F)F)cc1SC1CCCC1)c1ccc(NS(C)(=O)=O)c(F)c1 (stereo not given) | Ki [2]: 30 pM; IC50 [3]: 32000 pM; IC50 [4]: 37200 pM; inhibition in vivo at 0.3 mg/kg [8]: 38%; inhibition in vivo at 3 mg/kg [5]: 80%; MPE [9]: 48%; inhibition [10]: Dose-dependent effect; Activity [6]: Dose-dependent effect; Activity [7]: Non-toxic
